Measurements taken from paper PMC5673977, “Transport Deficiency Is the Molecular Basis of Candida albicans Resistance to Antifungal Oligopeptides” (Frontiers in Microbiology, 2017).
Converted amounts (≈) assume the structure as drawn. Read-outs that look alike come from different tables or passages of the source. Where a SMILES comes first, the peptide text is derived from it. [ ]: non-standard residue; d: D form. The star is where a group is joined. Fumaryl(OMe) = COC(=O)/C=C/C(=O)*; Dap = NC[C@H](N)C(=O)O

Experiments:
Type in all cases: cell-based, Candida albicans
[1] = test system: C. albicans opt1–opt5Δ; test: Initial peptide uptake rate; settings: 50 mM potassium phosphate buffer (pH 5.0 or 6.5) + 1% glucose, 30°C, 100 μM peptide, TNBS A420, slope 0- to 10-min
Summary of the method: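 Uptake velocity is the slope over the first 10 min of nanomoles oligopeptide taken up per mg cell dry weight, derived from loss of peptide from the medium. Cells were suspended at A660 ≅ 1.0 in 50 mM potassium phosphate, pH 5.0 or 6.5, with 1% glucose at 30°C and exposed to 100 μM peptide.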

[2] = test system: C. albicans SC 5314 cells; test: Morphological changes, Calcofluor White staining for chitin; settings: SC 5314 cells in RPMI-1640, 6 h, 30°C, F11 100 μg mL^-1
Protocol: Candida albicans cells from the overnight cultures in YPD were harvested, washed with sterile saline and suspended in the RPMI-1640 medium, to the final cell density of 10^5 cfu mL^-1. The compounds tested were added at appropriate concentrations and cultures were incubated for 6 h at 30°C, with shaking. At time intervals, samples of 0.1 mL were collected and cells were stained for chitin. The culture samples were combined with 0.1 mL aliquots of the Calcofluor White solution [0.3 mg mL^-1 in 25 mM phosphate-buffered saline (PBS), pH 7.0] and incubated for 5 min at 25°C. The cells were then harvested, washed four times with PBS, re-suspended in 0.1 mL of the fresh PBS and transferred to a microscopic slide. The stained cells were examined with the Olympus BX 60 F5 fluorescence microscope and photographs were taken using the Studio Lite software (Pixera Corporation, United States).
Since the anticandidal activity of P10 was moderate but independent on medium content and that of F11 was higher but strongly influenced by medium composition, it seemed obvious that the molecular bases of growth inhibitory activity of P10 and F11 were different and that a higher activity of F11 resulted from the presence of FMDP in its structure. To confirm whether the anticandidal activity of F11 was a consequence of GlcN6P synthase inhibition by FMDP, a morphology of SC 5314 cells treated with F11 was compared to that of the untreated cells. The cells were stained with Calcofluor White, the fluorescent brightener that binds specifically to chitin in the fungal cell wall. […] Since it is well known that the primary septum is built of chitin, this finding confirms that the action of F11 results in inhibition of chitin biosynthesis.

[3] = test system: C. albicans opt5Δ; settings: turbidity 531 nm, at least 80% decrease
Protocol: (§1) Strains were grown at 30°C in YPD medium (1% yeast extract, 2% peptone, and 2% glucose) and stored on YPD plates containing 2% agar. Susceptibility testing was performed in YPD and other three media: (a) RPMI-1640 w/o sodium bicarbonate, with L-glutamine + 2% glucose + 3.45% MOPS, pH adjusted to 7.0; (b) YNB-AS—Yeast Nitrogen Base w/o amino acids (contains ammonium sulfate 5 g L^-1) + 2% glucose; (c) YNB-SG—Yeast Nitrogen Base w/o amino acids and ammonium sulfate + 2% glucose + 0.2 g L^-1 sodium glutamate. In their solid version, used for the mutant generation and isolation, YNB-AS and YNB-SG contained 2% agar.
(§2) The in vitro growth inhibitory activity of antifungals was quantified by determination of minimal inhibitory concentration (MIC) values by the serial twofold dilution method, using the 96-well microtiter plates in three media: buffered RPMI-1640, YNB-AS, and YNB-SG. Conditions of the RPMI-1640-based assay were the same as outlined in the CLSI recommendations ([Clinical Laboratory Standards Institute, 2008]), except for the end-point readout that was done by spectrophotometric determination of cell density at 531 nm. Turbidity in individual wells was measured with a microplate reader (Victor^3; Perkin Elmer). MIC was defined as the lowest drug concentration that gave at least an 80% decrease in turbidity, relative to that of the drug-free growth control.
(§3) The 96-well microtiter plates were also used for determination of in vitro growth inhibitory activity in YPD and YNB-based media. Individual wells were inoculated with 5 × 10^3 cfu mL^-1 of C. albicans cells from the overnight culture in YPD medium. The inoculated plates were incubated 37°C for 24 h and then turbidity was measured with a microplate reader at 531 nm, as described above for the RPMI-1640-based assay.

[4] = test system: C. albicans opt4Δ; settings: turbidity 531 nm, at least 80% decrease
Protocol: as §1, §2, §3

[5] = test system: C. albicans opt1–opt5Δ; settings: turbidity 531 nm, at least 80% decrease
Protocol: as §1, §2, §3

[6] = test system: C. albicans ptr2Δ ptr22Δ; settings: turbidity 531 nm, at least 80% decrease
Protocol: as §1, §2, §3

[7] = test system: C. albicans opt1–opt5Δ ptr2Δ ptr22Δ; settings: turbidity 531 nm, at least 80% decrease
Protocol: as §1, §2, §3

[8] = test system: C. albicans opt1Δ; settings: turbidity 531 nm, at least 80% decrease
Protocol: as §1, §2, §3

[9] = test system: C. albicans opt2Δ opt3Δ; settings: turbidity 531 nm, at least 80% decrease
Protocol: as §1, §2, §3

[10] = test system: C. albicans SC5314; settings: for Increase of MICs in presence of Ala-Ala-Ala-Ala: YNB-SG + Ala-Ala-Ala-Ala 1 g L^-1; for Effect of supplementation with Ala-Ala or Ala-Ala-Ala on activity: YNB-based media + Ala-Ala or Ala-Ala-Ala, 1 g L^-1, 'similar effect' = complete elimination of activity as with Bacto Peptone; for MIC in YNB-AS, times higher than in YNB-SG: wild type SC5314
Protocol: as §1, §2, §3

[11] = RPMI-1640 medium, MOPS pH 7.0, CLSI conditions
[12] = SC 5314, RPMI-1640 medium, MOPS pH 7.0, CLSI conditions, turbidity 531 nm, at least 80% decrease
[13] = SC 5314, YNB + L-Gln (0.3 g L^-1) pH 5.0
[14] = SC 5314, YNB + L-Gln (0.3 g L^-1) pH 7.0
[15] = SC 5314, YNB + amino acid mixture (composition as in RPMI-1640)
[16] = SC 5314, YNB-AS medium, 5 × 10^3 cfu mL^-1, 37°C, 24 h, turbidity 531 nm, at least 80% decrease
[17] = SC 5314, YNB-SG medium, 5 × 10^3 cfu mL^-1, 37°C, 24 h, turbidity 531 nm, at least 80% decrease
[18] = SC 5314, growth medium YNB-SG (Table 6)

| SMILES | Morphological changes (primary septum / chitin) [2] | MIC [3, 11] [µg/mL] | MIC ([3]; YNB-AS medium, 37°C, 24 h) [µg/mL] | MIC [4, 11] [µg/mL] | MIC ([4]; YNB-AS medium, 37°C, 24 h) [µg/mL] | MIC [5, 11] [µg/mL] | MIC ([5]; YNB-AS medium, 37°C, 24 h) [µg/mL] | MIC [6, 11] [µg/mL] | MIC ([6]; YNB-AS medium, 37°C, 24 h) [µg/mL] | MIC [7, 11] [µg/mL] | MIC ([7]; YNB-AS medium, 37°C, 24 h) [µg/mL] | MIC [8, 11] [µg/mL] | MIC ([8]; YNB-AS medium, 37°C, 24 h) [µg/mL] | MIC [9, 11] [µg/mL] | MIC [10, 12] [µg/mL] | MIC [10, 13] [µg/mL] | MIC [10, 14] [µg/mL] | MIC [10, 15] [µg/mL] | MIC [10, 16] [µg/mL] | MIC [10, 18] [µg/mL] | further results |
| --- | --- | --- | --- | --- | --- | --- | --- | --- | --- | --- | --- | --- | --- | --- | --- | --- | --- | --- | --- | --- | --- |
| COC(=O)/C=C/C(=O)NC[C@H](N)C(=O)N[C@@H](CCCNC(=N)N)C(=O)N[C@@H](CCCCN)C(=O)N[C@@H](CCCCN)C(=O)N[C@@H](Cc1c[nH]c2ccccc12)C(=O)N[C@@H](Cc1ccccc1)C(=O)N[C@@H](Cc1c[nH]c2ccccc12)C(=O)O [Peptide F7, FMDP-Arg-Lys-Lys-Trp-Phe-Trp] (H-[Dap](Fumaryl(OMe))RKKWFW-OH; N-terminus and C-terminus assumed) | analogous to those observed for F11-treated cells | >128 | 32 (≈ 27.9 µM) | >128 | 32 (≈ 27.9 µM) | >128 | >128 | >128 | 16 (≈ 13.9 µM) | >128 | >128 | >128 | 32 (≈ 27.9 µM) | >128 | >128 | 8.0 | 64 | >128 | 16 (≈ 13.9 µM) | 0.5 (≈ 0.435 µM) | Uptake rate ± SD [1]: 0.32 ± 0.07 nmol min^-1 (mg dry weight)^-1; MIC ([3]; YNB-SG medium, 37°C, 24 h): 2 µg/mL (≈ 1.74 µM); MIC ([4]; YNB-SG medium, 37°C, 24 h): 16 µg/mL (≈ 13.9 µM); MIC ([5]; YNB-SG medium, 37°C, 24 h): 64 µg/mL (≈ 55.7 µM); MIC ([6]; YNB-SG medium, 37°C, 24 h): 0.5 µg/mL (≈ 0.435 µM); MIC ([7]; YNB-SG medium, 37°C, 24 h): 64 µg/mL (≈ 55.7 µM); MIC ([8]; YNB-SG medium, 37°C, 24 h): 8 µg/mL (≈ 6.97 µM); MIC ([9]; YNB-SG medium, 37°C, 24 h): 32 µg/mL (≈ 27.9 µM); MIC [10, 17]: 0.5 µg/mL (≈ 0.435 µM); Increase of MICs in presence of Ala-Ala-Ala-Ala [10]: 16- to 64 fold; Effect of supplementation with Ala-Ala or Ala-Ala-Ala on activity [10]: no effect; MIC in YNB-AS, times higher than in YNB-SG [10]: 8–16 times |
| COC(=O)/C=C/C(=O)NC[C@H](NC(=O)[C@H](CCSC)NC(=O)[C@@H](NC(=O)[C@@H]1CCCN1C(=O)[C@H](CC(C)C)NC(=O)[C@@H](N)CCCCN)C(C)C)C(=O)O [Peptide F6, Lys-Leu-Pro-Val-Met-FMDP] (H-KLPVM[Dap](Fumaryl(OMe))-OH; N-terminus and C-terminus assumed) | analogous to those observed for F11-treated cells | >128 | 8 (≈ 10.2 µM) | >128 | 8 (≈ 10.2 µM) | >128 | >128 | >128 | 4 (≈ 5.1 µM) | >128 | >128 | >128 | 8 (≈ 10.2 µM) | >128 | >128 | 4.0 | 128 | >128 | 4 (≈ 5.1 µM) | 0.5 (≈ 0.637 µM) | Uptake rate ± SD [1]: 0.22 ± 0.04 nmol min^-1 (mg dry weight)^-1; MIC ([3]; YNB-SG medium, 37°C, 24 h): 4 µg/mL (≈ 5.1 µM); MIC ([4]; YNB-SG medium, 37°C, 24 h): 8 µg/mL (≈ 10.2 µM); MIC ([5]; YNB-SG medium, 37°C, 24 h): 64 µg/mL (≈ 81.5 µM); MIC ([6]; YNB-SG medium, 37°C, 24 h): 0.5 µg/mL (≈ 0.637 µM); MIC ([7]; YNB-SG medium, 37°C, 24 h): 64 µg/mL (≈ 81.5 µM); MIC ([8]; YNB-SG medium, 37°C, 24 h): 4 µg/mL (≈ 5.1 µM); MIC ([9]; YNB-AS medium, 37°C, 24 h): 32 µg/mL (≈ 40.8 µM); MIC ([9]; YNB-SG medium, 37°C, 24 h): 32 µg/mL (≈ 40.8 µM); MIC ([10]; SC5314, YNB-SG medium (Table 8)): 4 µg/mL (≈ 5.1 µM); MIC [10, 17]: 0.5 µg/mL (≈ 0.637 µM); Increase of MICs in presence of Ala-Ala-Ala-Ala [10]: 16- to 64 fold; Effect of supplementation with Ala-Ala or Ala-Ala-Ala on activity [10]: no effect; MIC in YNB-AS, times higher than in YNB-SG [10]: 8–16 times |
| COC(=O)/C=C/C(=O)NC[C@H](N)C(=O)N[C@@H](CCCCN)C(=O)N[C@@H](CCCCN)C(=O)N[C@H](C(=O)N[C@H](C(=O)N[C@@H](Cc1ccccc1)C(=O)N[C@@H](Cc1c[nH]c2ccccc12)C(=O)N[C@H](C(=O)N[C@@H](CCCCN)C(=O)N[C@@H](Cc1ccccc1)C(=O)N[C@@H](CCCCN)C(=O)O)C(C)C)C(C)C)C(C)C [Peptide F11, FMDP-Lys-Lys-Val-Val-Phe-Trp-Val-Lys-Phe-Lys] (H-[Dap](Fumaryl(OMe))KKVVFWVKFK-OH; N-terminus assumed) | defective in formation of a primary septum | >128 | 16 (≈ 10.6 µM) | >128 | 32 (≈ 21.2 µM) | >128 | >128 | >128 | 16 (≈ 10.6 µM) | >128 | >128 | >128 | 32 (≈ 21.2 µM) | >128 | >128 | 16 | >128 | >128 | 16 (≈ 10.6 µM) | 1.0 (≈ 0.664 µM) | MIC ([9]; YNB-AS medium, 37°C, 24 h): 128 µg/mL (≈ 84.9 µM); Increase of MICs in presence of Ala-Ala-Ala-Ala [10]: 16- to 64 fold; Effect of N-acetyl-D-glucosamine supplementation on growth inhibitory activity ([10]; YNB-SG medium + N-acetyl-D-glucosamine, 10 mM): complete elimination of growth inhibitory activity; Effect of supplementation with Ala-Ala or Ala-Ala-Ala on activity [10]: no effect; MIC in YNB-AS, times higher than in YNB-SG [10]: 8–16 times |
